From the supplement of paper PMC10307832

Legend:
Assay in all cases: relative viability (nuclei count vs DMSO), 5 days (fraction); higher = more cells survive
[1] = compound: COc1cc2nc(N3CCCN(C)CC3)nc(NC3CCN(Cc4ccccc4)CC3)c2cc1OC + Cc1cc(Nc2cc(N3CCN(C)CC3)nc(Sc3ccc(NC(=O)C4CC4)cc3)n2)n[nH]1 [Tozasertib] (partner 0.1 µM)
Summary of the method: (§1)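 Lung cancer cell lines in 1536-well plates were dosed by pin tool the day after seeding, either with one drug alone or with a fixed anchor-drug dose plus five library-drug doses (not always all listed) in √10 steps. After 5 days, cells were fixed and their nuclei stained in one step (final 0.05% Triton X-100, 1% formaldehyde, 1 ug/ml Hoechst), then counted on 4× images. Relative viability is the nuclei count in treated wells divided by that in vehicle wells. Values are medians of duplicate plates.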

AZD6482 + Palbociclib = compound: Cc1cc([C@@H](C)Nc2ccccc2C(=O)O)c2nc(N3CCOCC3)cc(=O)n2c1 [AZD6482] + CC(=O)c1c(C)c2cnc(Nc3ccc(N4CCNCC4)cn3)nc2n(C2CCCC2)c1=O [Palbociclib] (partner 0.5 µM)
Summary of the method: as §1

AZD6482 + Navitoclax = compound: Cc1cc([C@@H](C)Nc2ccccc2C(=O)O)c2nc(N3CCOCC3)cc(=O)n2c1 [AZD6482] + CC1(C)CCC(c2ccc(Cl)cc2)=C(CN2CCN(c3ccc(C(=O)NS(=O)(=O)c4ccc(N[C@H](CCN5CCOCC5)CSc5ccccc5)c(S(=O)(=O)C(F)(F)F)c4)cc3)CC2)C1 [Navitoclax] (partner 0.5 µM)
Summary of the method: as §1

AZD6482 + Linsitinib = compound: Cc1cc([C@@H](C)Nc2ccccc2C(=O)O)c2nc(N3CCOCC3)cc(=O)n2c1 [AZD6482] + C[C@]1(O)C[C@@H](c2nc(-c3ccc4ccc(-c5ccccc5)nc4c3)c3c(N)nccn32)C1 [Linsitinib] (partner 1 µM)
Summary of the method: as §1

Cell Line: NCI-H2087
- relative viability ([1]; first compound 0.2 µM): 0.228
- relative viability ([1]; first compound 0.6325 µM): 0.269
- relative viability ([1]; first compound 2 µM): 0.292
- relative viability ([1]; first compound 6.325 µM): 0.304
- relative viability (AZD6482 + Palbociclib; first compound 0.08 µM): 0.235
- relative viability (AZD6482 + Palbociclib; first compound 0.253 µM): 0.223
- relative viability (AZD6482 + Palbociclib; first compound 0.8 µM): 0.209
- relative viability (AZD6482 + Palbociclib; first compound 2.53 µM): 0.185
- relative viability (AZD6482 + Palbociclib; first compound 8 µM): 0.207
- relative viability (AZD6482 + Navitoclax; first compound 0.08 µM): 0.847
- relative viability (AZD6482 + Navitoclax; first compound 0.253 µM): 0.909
- relative viability (AZD6482 + Navitoclax; first compound 0.8 µM): 0.966
- relative viability (AZD6482 + Navitoclax; first compound 2.53 µM): 0.818
- relative viability (AZD6482 + Navitoclax; first compound 8 µM): 0.895
- relative viability (AZD6482 + Linsitinib; first compound 0.08 µM): 0.902
- relative viability (AZD6482 + Linsitinib; first compound 0.253 µM): 0.929
- relative viability (AZD6482 + Linsitinib; first compound 0.8 µM): 1.09
- relative viability (AZD6482 + Linsitinib; first compound 2.53 µM): 0.815
- relative viability (AZD6482 + Linsitinib; first compound 8 µM): 0.964

Cell Line: LC-2-ad
- relative viability ([1]; first compound 0.2 µM): 0.493
- relative viability ([1]; first compound 0.6325 µM): 0.436
- relative viability ([1]; first compound 2 µM): 0.551
- relative viability ([1]; first compound 6.325 µM): 0.47
- relative viability (AZD6482 + Palbociclib; first compound 0.08 µM): 0.478
- relative viability (AZD6482 + Palbociclib; first compound 0.253 µM): 0.539
- relative viability (AZD6482 + Palbociclib; first compound 0.8 µM): 0.537
- relative viability (AZD6482 + Palbociclib; first compound 2.53 µM): 0.521
- relative viability (AZD6482 + Palbociclib; first compound 8 µM): 0.399
- relative viability (AZD6482 + Navitoclax; first compound 0.08 µM): 0.407
- relative viability (AZD6482 + Navitoclax; first compound 0.253 µM): 0.312
- relative viability (AZD6482 + Navitoclax; first compound 0.8 µM): 0.394
- relative viability (AZD6482 + Navitoclax; first compound 2.53 µM): 0.234
- relative viability (AZD6482 + Navitoclax; first compound 8 µM): 0.259
- relative viability (AZD6482 + Linsitinib; first compound 0.08 µM): 0.61
- relative viability (AZD6482 + Linsitinib; first compound 0.253 µM): 0.48
- relative viability (AZD6482 + Linsitinib; first compound 0.8 µM): 0.605
- relative viability (AZD6482 + Linsitinib; first compound 2.53 µM): 0.318
- relative viability (AZD6482 + Linsitinib; first compound 8 µM): 0.511

Cell Line: NCI-H1915
- relative viability ([1]; first compound 0.2 µM): 0.441
- relative viability ([1]; first compound 0.6325 µM): 0.465
- relative viability ([1]; first compound 2 µM): 0.464
- relative viability ([1]; first compound 6.325 µM): 0.426
- relative viability (AZD6482 + Palbociclib; first compound 0.08 µM): 0.478
- relative viability (AZD6482 + Palbociclib; first compound 0.253 µM): 0.524
- relative viability (AZD6482 + Palbociclib; first compound 0.8 µM): 0.529
- relative viability (AZD6482 + Palbociclib; first compound 2.53 µM): 0.49
- relative viability (AZD6482 + Palbociclib; first compound 8 µM): 0.521
- relative viability (AZD6482 + Navitoclax; first compound 0.08 µM): 0.772
- relative viability (AZD6482 + Navitoclax; first compound 0.253 µM): 0.696
- relative viability (AZD6482 + Navitoclax; first compound 0.8 µM): 0.83
- relative viability (AZD6482 + Navitoclax; first compound 2.53 µM): 0.739
- relative viability (AZD6482 + Navitoclax; first compound 8 µM): 0.739
- relative viability (AZD6482 + Linsitinib; first compound 0.08 µM): 0.982
- relative viability (AZD6482 + Linsitinib; first compound 0.253 µM): 1.1
- relative viability (AZD6482 + Linsitinib; first compound 0.8 µM): 1.09
- relative viability (AZD6482 + Linsitinib; first compound 2.53 µM): 1.03
- relative viability (AZD6482 + Linsitinib; first compound 8 µM): 1.1

Cell Line: NCI-H1793
- relative viability ([1]; first compound 0.2 µM): 0.338
- relative viability ([1]; first compound 0.6325 µM): 0.386
- relative viability ([1]; first compound 2 µM): 0.359
- relative viability ([1]; first compound 6.325 µM): 0.322
- relative viability (AZD6482 + Palbociclib; first compound 0.08 µM): 0.243
- relative viability (AZD6482 + Palbociclib; first compound 0.253 µM): 0.215
- relative viability (AZD6482 + Palbociclib; first compound 0.8 µM): 0.271
- relative viability (AZD6482 + Palbociclib; first compound 2.53 µM): 0.215
- relative viability (AZD6482 + Palbociclib; first compound 8 µM): 0.225
- relative viability (AZD6482 + Navitoclax; first compound 0.08 µM): 0.29
- relative viability (AZD6482 + Navitoclax; first compound 0.253 µM): 0.23
- relative viability (AZD6482 + Navitoclax; first compound 0.8 µM): 0.251
- relative viability (AZD6482 + Navitoclax; first compound 8 µM): 0.312
- relative viability (AZD6482 + Linsitinib; first compound 0.08 µM): 0.325
- relative viability (AZD6482 + Linsitinib; first compound 0.253 µM): 0.503
- relative viability (AZD6482 + Linsitinib; first compound 0.8 µM): 0.615
- relative viability (AZD6482 + Linsitinib; first compound 8 µM): 0.46

Cell Line: NCI-H2023
- relative viability ([1]; first compound 0.2 µM): 0.368
- relative viability ([1]; first compound 0.6325 µM): 0.301
- relative viability ([1]; first compound 2 µM): 0.46
- relative viability ([1]; first compound 6.325 µM): 0.109
- relative viability (AZD6482 + Palbociclib; first compound 0.08 µM): 0.265
- relative viability (AZD6482 + Palbociclib; first compound 0.253 µM): 0.328
- relative viability (AZD6482 + Palbociclib; first compound 0.8 µM): 0.405
- relative viability (AZD6482 + Palbociclib; first compound 2.53 µM): 0.277
- relative viability (AZD6482 + Palbociclib; first compound 8 µM): 0.226
- relative viability (AZD6482 + Navitoclax; first compound 0.08 µM): 0.891
- relative viability (AZD6482 + Navitoclax; first compound 0.253 µM): 0.999
- relative viability (AZD6482 + Navitoclax; first compound 0.8 µM): 0.803
- relative viability (AZD6482 + Navitoclax; first compound 2.53 µM): 0.615
- relative viability (AZD6482 + Navitoclax; first compound 8 µM): 0.621
- relative viability (AZD6482 + Linsitinib; first compound 0.08 µM): 0.373
- relative viability (AZD6482 + Linsitinib; first compound 0.253 µM): 0.337
- relative viability (AZD6482 + Linsitinib; first compound 0.8 µM): 0.322
- relative viability (AZD6482 + Linsitinib; first compound 2.53 µM): 0.199
- relative viability (AZD6482 + Linsitinib; first compound 8 µM): 0.234

Cell Line: COR-L 105
- relative viability ([1]; first compound 0.2 µM): 0.412
- relative viability ([1]; first compound 0.6325 µM): 0.429
- relative viability ([1]; first compound 2 µM): 0.385
- relative viability ([1]; first compound 6.325 µM): 0.353
- relative viability (AZD6482 + Palbociclib; first compound 0.08 µM): 0.419
- relative viability (AZD6482 + Palbociclib; first compound 0.253 µM): 0.434
- relative viability (AZD6482 + Palbociclib; first compound 0.8 µM): 0.434
- relative viability (AZD6482 + Palbociclib; first compound 2.53 µM): 0.492
- relative viability (AZD6482 + Palbociclib; first compound 8 µM): 0.376
- relative viability (AZD6482 + Navitoclax; first compound 0.08 µM): 0.78
- relative viability (AZD6482 + Navitoclax; first compound 0.253 µM): 0.648
- relative viability (AZD6482 + Navitoclax; first compound 0.8 µM): 0.747
- relative viability (AZD6482 + Navitoclax; first compound 2.53 µM): 0.521
- relative viability (AZD6482 + Navitoclax; first compound 8 µM): 0.633
- relative viability (AZD6482 + Linsitinib; first compound 0.08 µM): 0.635
- relative viability (AZD6482 + Linsitinib; first compound 0.253 µM): 0.779
- relative viability (AZD6482 + Linsitinib; first compound 0.8 µM): 0.783
- relative viability (AZD6482 + Linsitinib; first compound 2.53 µM): 0.553
- relative viability (AZD6482 + Linsitinib; first compound 8 µM): 0.603

Cell Line: RERF-LC-KJ
- relative viability ([1]; first compound 0.2 µM): 0.508
- relative viability ([1]; first compound 0.6325 µM): 0.523
- relative viability ([1]; first compound 2 µM): 0.47
- relative viability ([1]; first compound 6.325 µM): 0.417
- relative viability (AZD6482 + Palbociclib; first compound 0.08 µM): 0.961
- relative viability (AZD6482 + Palbociclib; first compound 0.253 µM): 0.981
- relative viability (AZD6482 + Palbociclib; first compound 0.8 µM): 1.03
- relative viability (AZD6482 + Palbociclib; first compound 2.53 µM): 0.838
- relative viability (AZD6482 + Palbociclib; first compound 8 µM): 0.808
- relative viability (AZD6482 + Navitoclax; first compound 0.08 µM): 0.584
- relative viability (AZD6482 + Navitoclax; first compound 0.253 µM): 0.854
- relative viability (AZD6482 + Navitoclax; first compound 0.8 µM): 0.802
- relative viability (AZD6482 + Navitoclax; first compound 2.53 µM): 0.52
- relative viability (AZD6482 + Navitoclax; first compound 8 µM): 0.874
- relative viability (AZD6482 + Linsitinib; first compound 0.08 µM): 0.757
- relative viability (AZD6482 + Linsitinib; first compound 0.253 µM): 0.814
- relative viability (AZD6482 + Linsitinib; first compound 0.8 µM): 0.822
- relative viability (AZD6482 + Linsitinib; first compound 2.53 µM): 0.764
- relative viability (AZD6482 + Linsitinib; first compound 8 µM): 0.784

Cell Line: LXF-289
- relative viability ([1]; first compound 0.2 µM): 0.184
- relative viability ([1]; first compound 0.6325 µM): 0.195
- relative viability ([1]; first compound 2 µM): 0.205
- relative viability ([1]; first compound 6.325 µM): 0.211
- relative viability (AZD6482 + Palbociclib; first compound 0.08 µM): 0.565
- relative viability (AZD6482 + Palbociclib; first compound 0.253 µM): 0.605
- relative viability (AZD6482 + Palbociclib; first compound 0.8 µM): 0.634
- relative viability (AZD6482 + Palbociclib; first compound 2.53 µM): 0.631
- relative viability (AZD6482 + Palbociclib; first compound 8 µM): 0.55
- relative viability (AZD6482 + Navitoclax; first compound 0.08 µM): 0.974
- relative viability (AZD6482 + Navitoclax; first compound 0.253 µM): 0.955
- relative viability (AZD6482 + Navitoclax; first compound 0.8 µM): 0.997
- relative viability (AZD6482 + Navitoclax; first compound 2.53 µM): 0.954
- relative viability (AZD6482 + Navitoclax; first compound 8 µM): 0.854
- relative viability (AZD6482 + Linsitinib; first compound 0.08 µM): 0.993
- relative viability (AZD6482 + Linsitinib; first compound 0.253 µM): 1
- relative viability (AZD6482 + Linsitinib; first compound 0.8 µM): 0.971
- relative viability (AZD6482 + Linsitinib; first compound 2.53 µM): 0.806
- relative viability (AZD6482 + Linsitinib; first compound 8 µM): 0.781
